The text below walks through data of US20060217305A1, “Induction of tumor cell senescence by retinoid receptor agonists and antagonists” (Ordway Research Institute, Inc., priority 2005, published 2006).

One series relates to MCF-7 cells. As to the kind of experiment: MCF-7 cell growth, cell number after 7 days. In kind it is cell-based, human. As to conditions: 100 nM RA, LGD1550, LGD1268, 10 μM LG100815, LG101208. The method, then:
The bars represent cell number after 7 days of culture with the addition of DMSO (control), 100 nM RA, 100 nM RAR agonist LGD1550, 100 nM RXR agonist LGD1268, 10 μM RAR antagonist LG100815, and 10 μM RXR antagonist LG101208. Experiments were done in triplicate, and the results are expressed relative to the average of the control.
To test this, we have analyzed the effects of different compounds on the growth of MCF-7 cells, as measured by the cell number after 7 days exposure to the compounds (FIG. 2) and on the fraction of cells expressing the senescence-associated β-galactosidase activity (SA-β-gal), a marker of senescence, after 7-day treatment with the compounds (FIG. 3).

Series [1] has as its system retinoid-inducible genes EPLIN, UBD, IGFBP3, TGFB1 and TRIM31 in MCF-7 cells (subline MCF-7 3′SS6). Description: real-time RT-PCR (QPCR) of retinoid-inducible gene expression, 2 days treatment. In kind it is cell-based, human. Particulars: for Fold induction EPLIN / Fold induction IGFBP3 / Fold induction TGFBI / Fold induction TRIM31 / Fold induction UBD: 2 days, MCF-7. An excerpt:
The following compounds were obtained from Ligand Pharmaceuticals (San Diego, Calif.). LGD1550 is a pan-RAR agonist. LGD1268 is a pan-RXR agonist. LG100815 is a pan-RAR antagonist. LG101208 is a pan-RXR antagonist. The LG100815 compound is a specific RAR antagonist that binds to RAR, but fails to activate its Retinoic Acid Responsive Element (RARE)-dependent transcription transactivation function (see Lee et al, Mol. Cell Biol. 19: 1973-1980 (1999)). Also used was all-trans retinoic acid (RA), the most commonly used RAR agonist. To determine how these compounds affect the expression of retinoid-inducible growth inhibitory genes EPLIN, UBD, IGFBP3 and TGFB1, as well as TRIM31 gene that contains a putative RARE element in its promoter, MCF-7 cells (subline MCF-7 3′SS6) were treated with individual compounds or their combinations for 2 days, and RNA was extracted by standard procedures. In the initial assays, gene expression was analyzed by semi-quantitative reverse transcription-PCR (RT-PCR), as described in Dokmanovic et al., Cancer Biology & Therapy 1:24-27 (2002). In subsequent assays, the initial results were confirmed, expanded and quantitated by real-time RT-PCR (QPCR), using Applied BioSystems 7900HT real-time PCR instrument. β-actin was used as a normalization standard.
cDNA was prepared by reverse transcription with random primer using 4 μg total RNA. 5 μl SYBR Green PCR Master Mix (Applied Biosystems) was mixed with […] cDNA and 0.8 pmol of gene-specific primers and brought up to 10 μl with ultra pure H2O in 384-well optical plates. For amplification, reaction mixtures were heated for 2 min at 50° C. and 10 min at 95° C., followed by 40 cycles of two-step PCR consisting of 15 sec at 95° C. and 1 min at 60° C., to construct dissociation curves and verify that single PCR products were obtained. PCR products were also analyzed by gel electrophoresis to confirm that a single product of the expected size was amplified. […] The comparative CT method for relative quantitation of gene expression described by Applied Biosystems was used to determine expression levels for target genes. Experiments were carried out in triplicate for each data point. Sequence Detection Systems software version 2.1 (Applied Biosystems) and Microsoft Excel were used for data analysis.
(In general: Real-time PCR tracks product formation cycle by cycle.)

Turning to `CC(/C=C/C=C(\C)c1cc(C(C)(C)C)cc(C(C)(C)C)c1)=C\C(=O)O` [LGD1550], in the series with MCF-7 cells, the “effect on MCF-7 cell growth (cell number)” value was “inhibited the cell growth”. In series [1] (100 nM), the “ratio of the fold-induction of TGFB1 relative to TRIM31” value was found to be 0.12, the “Fold induction EPLIN” value was determined as 4.2 ± 0.8 fold, the “Fold induction IGFBP3” value was found to be 4.2 ± 2.0 fold and the “Fold induction TGFBI” value came to 5.1 ± 0.6 fold. Also, in series [1] (100 nM), the “Fold induction TRIM31” value came to 42.7 ± 1.3 fold and the “Fold induction UBD” value came to 9.5 ± 0.2 fold. Besides, in series [1] (1 μM), the “ratio of the fold-induction of TGFB1 relative to TRIM31” value is 0.12, the “Fold induction EPLIN” value is 3.2 ± 0.3 fold, the “Fold induction IGFBP3” value amounted to 3.7 ± 0.7 fold and the “Fold induction TGFBI” value came to 3.5 ± 0.4 fold. Also, in series [1] (1 μM), the “Fold induction TRIM31” value is on record as 30.3 ± 0.7 fold and the “Fold induction UBD” value is reported as 7.7 ± 1.1 fold. Also, in series [1] (10 μM), the “ratio of the fold-induction of TGFB1 relative to TRIM31” value stood at 0.12, the “Fold induction EPLIN” value was 4.9 ± 2.5 fold, the “Fold induction IGFBP3” value amounted to 2.8 ± 1.6 fold and the “Fold induction TGFBI” value is 5.6 ± 0.1 fold. For the same molecule, in series [1] (10 μM), the “Fold induction TRIM31” value turned out to be 45.0 ± 1.4 fold and the “Fold induction UBD” value is 7.3 ± 1.1 fold. Moreover, the “effect on expression of the five genes (IGFBP3, EPLIN, UBD, TGFB1, TRIM31)” value in series [1] (summary of Table 2, MCF-7) was “induced all five genes to approximately the same extent as RA”.
